From patent US7776911B2 (priority 2005, dated 2010)
pIC50: −log10 of the molar value. “Also recorded” adds a separate entry of the source.

Tests used:
[1] = tested on: P. falciparum (chloroquine-resistant); assay: P. falciparum culture growth by [3H]-hypoxanthine uptake, drugs singly or in combination, with isobolographic analysis; format: cell-based, Plasmodium falciparum; settings: 48 hrs, starting parasitemia 2-3%
Description: (§1) Appropriate solvent controls were used. Parasite growth was measured by staining the slides with Giemsa as well as [α3H]-hypoxanthine uptake. In the latter case, the cultured cells were lysed with water and the parasites collected by filtration, washed and radioactivity measured. Adult f mice (40-50 g) were infected with P. berghei by intraperitoneal injection of an aliquot of infected mouse blood. After 24 hr, the animals were given a single injection of different amounts of artemisinin derivative at a dose of 5 mg/mouse. The oral feeding was repeated after 24 hr and 48 hr. Parasite count was measured in blood before and drug therapy at different time intervals using Giemsa to stain the slides. All the infected mice die in a span of 5-8 days and the efficacy of the drugs given singly or in combination was measured in terms of parasite clearance in blood and protection against mortality.
The potency of the combination was assessed by isobolographic characterization of the drug interactions. The additive or synergistic or antagonistic effects were assessed based on the following interaction index:
When I is less than 1 the drugs interact synergistically and the isobol bows below the line of additivity. When I is equal to 1 the isobol is coincident with the line of additivity and the interaction is additive. When I is greater than 1, the isobol bows above the line of additivity and the interaction is antagonistic. […] The interaction between curcumin and artemisinin is thus clearly synergistic.
P. falciparum (chloroquine-resistant) was maintained in culture using human O+ve red cells and serum by the candle jar method as per standard protocols. […] Appropriate solvent controls were used. Parasite growth was quantitatively measured using 3[H]-hypoxanthine uptake. The cultured cells were incubated for 48 hrs and then the parasites were collected by filtration after lysis of the cells. The filters were extensively washed and then radioactivity measured. […] The potency of the combination was assessed by isobolographic characterization of drug interactions.
The T values ranged from 0.7 to 0.85 in all combinations. The isobol bowling below the line of additivity and the T values being less than 1 indicate that the curcumin-artemisinin. Interaction is clearly synergistic

P. berghei [2] = settings: mice infected with P. berghei; cited from earlier work
P. berghei [3] = assay: Protection of mice infected with P. berghei (mortality, parasite count in blood); format: in vivo
Description: as §1
Striking results were obtained in terms of parasite clearance and protection against mortality. The experiments were carried out with 6 mice per batch and the experiments were repeated at least 3 times. The results presented in FIG. 3 represent those obtained in a typical experiment. The results obtained in the 2nd and 3rd experiments are identical in pattern. The average pattern obtained with the infected animals is as follows. All the infected animals die in about 5-8 days. […] A single injection of artemisinin derivative (α,β-arteether) at a dose of 500 μg/mouse results in death of animals in 10-12 days. […] Treatment with a single injection α,β-arteether at 750 μg and 1.5 mg results in death of animals between 20-26 days and 32-38 days respectively. […] The animals continue to live normally for several months. This picture is also supported by parasite load in blood (FIG. 4).
Methodology; Mice (−40 g) were infected ˜ with P. berghei by intraperitoneal infection. After 24 hrs, the animals received a single injection of different concentrations of a derivative of artemisinin (α,β-arteether) (500˜g to 1.5 mg) by the intramuscular route. […] The oral treatment was repeated after 24 hr and 48 hr. Blood smears were made from the mice at different day intervals and parasites stained with Giemsa. […] The experiments were repeated thrice with 6 mice in each group.

P. falciparum = settings: culture of P. falciparum; cited from earlier work

| Compound | pIC50 [1] | pIC50 ([1]; Plasmodium falciparum) | antimalarial activity (P. berghei [2]) | death of animals (P. berghei [3]; curcumin alone, 3 day oral treatment (5 mg), untreated infected mice die in 5-8 days) [days] | antimalarial activity (P. falciparum) | death of animals (P. berghei [3]; single injection 750 μg per mouse) [days] | death of animals (P. berghei [3]; single injection 1.5 mg per mouse) [days] | parasite load in blood (P. berghei [3]; single injection, Giemsa stained blood smears) |
| --- | --- | --- | --- | --- | --- | --- | --- | --- |
| C[C@@H]1CC[C@H]2[C@@H](C)C(=O)O[C@@H]3O[C@@]4(C)CC[C@@H]1[C@]32OO4 [artemisinin] | ~7.26 | 7.26 to 7.35 | – | – | – | – | – | – |
| COc1cc(/C=C/C(=O)CC(=O)/C=C/c2ccc(O)c(OC)c2)ccc1O [curcumin] | ~4.82 | 4.77 to 4.82 | has antimalarial activity | 10 to 12 | has antimalarial activity | – | – | – |
| CCO[C@H]1O[C@@H]2O[C@@]3(C)CC[C@H]4[C@H](C)CC[C@@H]([C@H]1C)[C@@]24OO3 [α,β-arteether] | – | – | – | – | – | 20 to 26 | 32 to 38 | clears the parasites in blood initially, but there is recrudescence; also recorded: clears parasites in blood initially, but there was recrudescence |
